From patent US20190125714A1, “CALPAIN INHIBITORS IN THE PREVENTION AND/OR TREATMENT OF VENTRICULAR REMODELLING” (FUNDAClÓ HOSPITAL UNIVERSITARI VALL D'HEBRON - INSTITUT DE …, priority 2016, published 2019)
Like-named read-outs stand apart in the source and are kept apart here.

Tests used:
[1] = intravenously before initiating ischemia and during a reperfusion of 6 hours; cited from earlier work
[2] = administered at the start (onset) of reperfusion; cited from earlier work
[3] = tested on: Sprague-Dawley rats; experiment: Inflammatory cell infiltration (CD68 immunohistochemistry) in hearts reperfused for 3 days; assay type: in vivo, rat; details: 3 days of reperfusion
Experimental: Sprague-Dawley rats (250-300 g) were premedicated with atropine (0.05 mg/kg ip), anaesthetized with ketamine (75 mg/kg ip) and xylazine (10 mg/kg ip), and mechanically ventilated (Inspira ASV, Harvard Apparatus). Anaesthesia was maintained with 1-2% isoflurane and body temperature controlled with a heating pad to 36-37° C. The heart was exposed through the fourth intercostal space and the left anterior descending coronary artery (LAD) ligated using 6/0 silk suture (Ethicon Endo-surgery, OH, USA), 1 mm distal to left atrial appendage. After occlusion for 30 min, the suture was loosened to start reperfusion and buprenorphine (0.05 mg/kg per 6 h, subcutaneously) was given for 48 h. Mice with lack of ST-elevation during ischemia or lack of ST-recovery at reperfusion were excluded from further evaluation.
Macrophage infiltration in the non-infarcted myocardium was analyzed by immunohistochemistry in hearts reperfused for 3 days (n=4 per group).
Myocardial sections were exposed to H2O2/methanol, levamisol (DakoCytomation) and avidin/biotin blocking (Vector Laboratories) to neutralize endogenous peroxidase, phosphatase and biotin, respectively. Sections were probed with CD68 (AbD Serotec) for monocytes/macrophages, incubated with a biotinylated secondary antibody (1:200, ABC Peroxidase standard stainig kit, Thermo Scientific) in 2% normal blocking serum and visualized using 3, 3′-diaminobenzidine (DAB, Sigma). Six random photomicrographs from the infarct area and six from the non-infarcted area for each heart (n=6 per group) were taken at 200× magnification.

[4] = tested on: Sprague-Dawley rats; experiment: Myocardial hypertrophy and fibrosis induced by isoproterenol; assay type: in vivo, rat; details: 7 days
Experimental: Chronic administration of isoproterenol is the most common small animal model in the study of myocardial remodeling. In order to study the effect of calpain inhibition in AVR of a different cause than myocardial infarction, myocardial hypertrophy and fibrosis induced by isoproterenol.
The calpain inhibitor SNJ-1945 was co-administered orally once a day to male Sprague-Dawley rats that received 5 mg/Kg/day isoproterenol (ISO) […] for 1 week. Assayed groups were as follows:
Isoproterenol group (ISO): administration of isoproterenol as a single daily subcutaneous injection for 7 consecutive days.
SNJ-1945 treated group (SNJ+ISO): co-administration of SNJ-1945 (orally) and isoproterenol (subcutaneous) for 7 consecutive days.
Hearts were obtained and compared with vehicle-treated and ISO treated rats not receiving the calpain inhibitor.
Echocardiography was performed using a Vivid portable ultrasound system with a i12L-RS 12 MHz transducer (GE Healthcare) as described earlier (Poncelas, Inserte et al. 2015, “Obesity induced by high fat diet attenuates postinfarct myocardial remodeling and dysfunction in adult B6D2F1 mice”, Journal of Molecular and Cellular Cardiology-2015, vol. no. 84, pp.: 154-161).
For the PCR, total RNA was extracted from ischemic and non-ischemic area of heart samples of the three assayed groups using TRIsure™ reagent (BIOLINE, UK) following the manufacturer's protocol. Quantitative RT-PCR was performed using Taqman universal PCR master mix (Applied Biosystems, USA). The amplification program consisted of 50° C. for 2 minutes, 95° C. for 10 minutes and 40 cycles of 95° C. for 15 sec and 60° C. for 1 minutes and was performed in a 7900HT Fast Real-Time PCR System (Applied Biosystems, USA). Primers used for ANP, BNP, collagen I, Myh6, Myh7, and […] were purchased from Thermofisher and were those in the following Gene Expression Assays (Rn00561661_m1, Rn04219558_g1, Rn01463848_m1, Rn00691721_g1, Rn01488777_g1, and Rn00572010_m1, respectively, reference to assays retrievable from Thermofisher catalogue at Mar. 1, 2017; https://www.thermofisher.com/order/genome-databaseldetails/gene-expression/).

[5] = tested on: calpain; experiment: Isolated rat hearts subjected to ischemia/reperfusion, calpain-specific α-fodrin breakdown products; details: perfusion of isolated rat hearts, data not shown
[6] = tested on: calpain; experiment: Proteolysis of α-fodrin after oral gavage, 60 minutes of reperfusion; assay type: in vivo, rat; details: 120 mg/kg orally (gavage); after 60 minutes of reperfusion
[7] = target: T1, matrix metalloproteinase-2 (MMP-2) (Rattus norvegicus, UniProt P33436); experiment: MMP-2 gelatinolytic activity by gelatin zymography of myocardial extracts; assay type: biochemical; details: 5, 10 and 50 μM, incubated overnight at 37° C.
T1 construct: myocardial preparations obtained from rats reperfused for 21 days (control group); from tissue; host or cells: rat myocardium (extracts after 21 days of reperfusion)
T1 sequence (P33436 110-662): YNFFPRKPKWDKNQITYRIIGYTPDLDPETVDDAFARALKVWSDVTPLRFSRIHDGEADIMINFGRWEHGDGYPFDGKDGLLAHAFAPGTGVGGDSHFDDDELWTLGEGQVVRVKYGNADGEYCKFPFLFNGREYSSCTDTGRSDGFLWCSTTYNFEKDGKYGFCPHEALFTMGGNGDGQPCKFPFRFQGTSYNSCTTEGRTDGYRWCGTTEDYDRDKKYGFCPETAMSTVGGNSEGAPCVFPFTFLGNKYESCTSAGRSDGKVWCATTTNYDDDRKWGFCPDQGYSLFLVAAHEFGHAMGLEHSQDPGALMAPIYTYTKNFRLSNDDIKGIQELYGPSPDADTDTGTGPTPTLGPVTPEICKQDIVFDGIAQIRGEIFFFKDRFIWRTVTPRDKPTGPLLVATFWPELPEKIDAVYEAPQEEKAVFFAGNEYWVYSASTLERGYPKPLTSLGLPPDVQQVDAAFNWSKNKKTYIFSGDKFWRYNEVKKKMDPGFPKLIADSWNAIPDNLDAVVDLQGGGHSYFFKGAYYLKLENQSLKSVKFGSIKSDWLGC
Experimental: Activity of MMP-2 was evaluated by gelatin zymography. Briefly, myocardial preparations obtained from rats reperfused for 21 days (control group) were run on a 10% polyacrylamide gel copolymerized with 1.5 mg/ml gelatin. After washing with 2.5% Triton X-100, gels were cut into strips and incubated separately, overnight, in zymography buffer with SNJ-1945 at the concentrations of 5, 10 and 50 μM, DMSO as a vehicle control or the selective MMP inhibitor ONO-4817 (N-[(1 S,3S)-1-[(Ethoxymethoxy)methyl]-4-(hydroxyamino)-3-methyl-4-oxobutyl]-4-phenoxybenzamide) (50 μM, Tocris). It was further examined MMP-2 activity (as % of 0 μM) in samples prepared from animals receiving SNJ-1945 by oral gavage and reperfused for 21 days (Chronic group). Gels were stained in 0.25% Coomassie Brilliant blue G, 40% methanol, and gelatinolytic activities quantitated after destaining.

[8] = tested on: Sprague-Dawley rats; details: for Attenuation of scar area (LV area stained with picrosirius red): 21 days of reperfusion
[9] = added to the cardioplegic solution and during 60 min of reperfusion; cited from earlier work
[10] = SNJ-1945 orally once a day with isoproterenol 5 mg/Kg/day
[11] = oral co-administration with ISO

CCN(CC)Cc1ccc(/C=C/c2ccccc2C(=O)NC(Cc2ccccc2)C(=O)C(N)=O)cc1 (centres unmarked) [A-705253]
Hemodynamic and contractile function [1]: improved | Infarct size [1]: reduced | Cardioprotective effect [2]: cardioprotective effect

COCCOCCOC(=O)N[C@@H](CC(C)C)C(=O)N[C@@H](Cc1ccccc1)C(=O)C(=O)NC1CC1 [SNJ-1945, ((1S)-1-((((1S)-1-benzyl-2,3-dioxo-3-(cyclopropylamino)-propyl)amino)carbonyl)-3-methylbutyl)carbamic acid 5-methoxy-3-oxapentyl ester]
Infiltration of monocytes/macrophages: acute and chronic treatments combined ([3]; Ac+Chr group, P<0.001): no significant additive effect | Infiltration of monocytes/macrophages (CD68+) in the ischemic area ([3]; Acute group, P=0.002): attenuate | Infiltration of monocytes/macrophages (CD68+) in the non-ischemic area ([3]; Acute group, P=0.046): attenuate | Infiltration of monocytes/macrophages (CD68+) in the non-ischemic area ([3]; Chronic group, P=0.001): attenuate | Infiltration of monocytes/macrophages (CD68+) in the ischemic area ([3]; Chronic group, P=0.028): attenuate | Increase in heart weight induced by isoproterenol [4, 10]: reduces the increase | Increase in interventricular wall (IVSWT) thickness induced by isoproterenol, echocardiography [4, 10]: reduces the increase | Increase in posterior wall (PWT) thickness induced by isoproterenol, echocardiography [4, 10]: reduces the increase | ANP mRNA levels (PCR) [4, 11]: reduced | BNP mRNA levels (PCR) [4, 11]: reduced | Calpain activation [4, 11]: attenuated | Cardiomyocyte crossectional area [4, 11]: reduced | Expression of TGFβ induced by ISO (PCR) [4, 11]: significantly reduced | Expression of collagen I induced by ISO (PCR) [4, 11]: significantly reduced | Intraventricular collagen deposition induced by ISO [4, 11]: significantly reduced | β-MHC/α-MHC ratio (PCR) [4, 11]: reduced | Calpain-specific α-fodrin breakdown products (calpain inhibition) [5]: dose-dependent reduction | Proteolisis of α-fodrin [6]: significantly reduced | MMP-2 activity (gelatinolytic) [7]: does not inhibit | LV dilation and dysfunction (echocardiography: LVEDD, LVESD, EF) ([8]; Ac+Chr group: acute ip plus oral 14 days, measured at 1 week of reperfusion vs control): significantly attenuated | Attenuation of scar area (LV area stained with picrosirius red) ([8]; Ac+Chr group, P=0.003): 33.7% | Levels of α-SMA (marker of fibroblast activation, western-blot) ([8]; Ac+Chr group, P=0.009): reduced | Interstitial fibrosis, acute and chronic phase combined ([8]; Ac+Chr group, P=0.016): No further reduction | β-MHC protein levels (western-blot, relative to GAPDH) ([8]; Ac+Chr group, P=0.019): attenuated | Cardiomyocyte hypertrophy (cross-sectional area, non-ischemic myocardium) ([8]; Ac+Chr group, P=0.021): significantly reduced | LV dilatation, ejection fraction and scar area: combination vs individual treatments ([8]; Ac+Chr vs acute or chronic alone): did not result in a statistically significant improvement | Hypertrophy markers: additive effect when both treatments were combined ([8]; Ac+Chr vs single treatments): No significant additive effect | Cardiomyocyte hypertrophy (cross-sectional area, non-ischemic myocardium) ([8]; Acute group): not acute | β-MHC protein levels (western-blot, relative to GAPDH) ([8]; Acute group): attenuated only in groups treated chronically | Attenuation of scar area (LV area stained with picrosirius red) ([8]; Acute group, 120 mg/kg ip at reperfusion, P=0.002): 29.1% | LV dilation and dysfunction (echocardiography: LVEDD, LVESD, EF) ([8]; Acute group: 120 mg/kg intraperitoneally 5 min before reperfusion, measured at 1 week of reperfusion vs control): significantly attenuated | Interstitial collagen deposition in the non-infarcted area ([8]; Acute group, P=0.109): not acute treatment | Attenuation of scar area (LV area stained with picrosirius red) ([8]; Chronic group, 120 mg/kg oral 14 days from 24 h of reperfusion, P=0.036): 22.7% | LV dilation and dysfunction (echocardiography: LVEDD, LVESD, EF) ([8]; Chronic group: 120 mg/kg orally over 14 days starting after 24 h of reperfusion, at 21 days of reperfusion vs control): significantly attenuated | Levels of α-SMA (marker of fibroblast activation, western-blot) ([8]; Chronic group, P=0.012): reduced | Interstitial collagen deposition in the non-infarcted area ([8]; Chronic group, P=0.029): reduced | β-MHC protein levels (western-blot, relative to GAPDH) ([8]; Chronic group, P=0.036): attenuated | Cardiomyocyte hypertrophy (cross-sectional area, non-ischemic myocardium) ([8]; Chronic group, P=0.041): significantly reduced | Echocardiographic parameters, acute vs chronic treatment ([8]; at the end of the experiment (21 days)): No significant differences | Survival rate between groups ([8]; control, acute, chronic, Ac+Chr, overall mortality rate 12.5%): no differences | Left ventricular dysfunction after cardioplegic arrest [9]: prevents left ventricular dysfunction
